Assay results from the supplement of paper PMC10307832.

Tests used:
Assay in all cases: relative viability (nuclei count vs DMSO), 5 days (fraction); higher = more cells survive
HCC-44 = tested on: HCC-44
Method in brief: (§1)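 Lung cancer cell lines in 1536-well plates got either a single drug or a fixed anchor-drug dose together with five library-drug doses (not always all listed) in √10 steps, by pin tool, on the day after seeding. Nuclei were counted after 5 days, and relative viability is the treated-to-vehicle ratio of nuclei counts. Values are medians of duplicate plates.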

NCI-H2085 = tested on: NCI-H2085
Method in brief: as §1

NCI-H2170 = tested on: NCI-H2170
Method in brief: as §1

EPLC-272H = tested on: EPLC-272H
Method in brief: as §1

EKVX = tested on: EKVX
Method in brief: as §1

LOU-NH91 = tested on: LOU-NH91
Method in brief: as §1

NCI-H2023 = tested on: NCI-H2023
Method in brief: as §1

NCI-H2405 = tested on: NCI-H2405
Method in brief: as §1

PC-14 = tested on: PC-14
Method in brief: as §1

NCI-H1793 = tested on: NCI-H1793
Method in brief: as §1

NCI-H1650 = tested on: NCI-H1650
Method in brief: as §1

SW 900 = tested on: SW 900
Method in brief: as §1

NCI-H3122 = tested on: NCI-H3122
Method in brief: as §1

COR-L23 = tested on: COR-L23
Method in brief: as §1

NCI-H1734 = tested on: NCI-H1734
Method in brief: as §1

ABC-1 = tested on: ABC-1
Method in brief: as §1

NCI-H520 = tested on: NCI-H520
Method in brief: as §1

NCI-H441 = tested on: NCI-H441
Method in brief: as §1

NCI-H2347 = tested on: NCI-H2347
Method in brief: as §1

201T = tested on: 201T
Method in brief: as §1

RERF-LC-KJ = tested on: RERF-LC-KJ
Method in brief: as §1

NCI-H647 = tested on: NCI-H647
Method in brief: as §1

NCI-H1993 = tested on: NCI-H1993
Method in brief: as §1

CC(C)Oc1cc(Nc2nc(N[C@@H](C)c3ccc(F)cn3)ncc2Cl)n[nH]1 [AZ23] + Nc1ncn([C@H]2C[C@H](O)[C@@H](CO)O2)c(=O)n1 [Decitabine] (partner 2 µM)
relative viability (HCC-44; first compound 0.01 µM): 1.03
relative viability (HCC-44; first compound 0.03162 µM): 0.973
relative viability (HCC-44; first compound 0.3162 µM): 0.979
relative viability (NCI-H2085; first compound 0.01 µM): 0.565
relative viability (NCI-H2085; first compound 0.03162 µM): 0.539
relative viability (NCI-H2085; first compound 0.3162 µM): 0.5
relative viability (NCI-H2170; first compound 0.01 µM): 0.482
relative viability (NCI-H2170; first compound 0.03162 µM): 0.475
relative viability (NCI-H2170; first compound 0.3162 µM): 0.483
relative viability (EPLC-272H; first compound 0.03162 µM): 0.344
relative viability (EPLC-272H; first compound 0.3162 µM): 0.389
relative viability (EKVX; first compound 0.01 µM): 0.395
relative viability (EKVX; first compound 0.03162 µM): 0.365
relative viability (EKVX; first compound 0.3162 µM): 0.345
relative viability (LOU-NH91; first compound 0.01 µM): 0.817
relative viability (LOU-NH91; first compound 0.03162 µM): 0.888
relative viability (LOU-NH91; first compound 0.3162 µM): 0.818
relative viability (NCI-H2023; first compound 0.03162 µM): 0.259
relative viability (NCI-H2023; first compound 0.3162 µM): 0.239
relative viability (NCI-H2405; first compound 0.01 µM): 0.774
relative viability (NCI-H2405; first compound 0.03162 µM): 0.805
relative viability (NCI-H2405; first compound 0.3162 µM): 0.721
relative viability (PC-14; first compound 0.01 µM): 0.191
relative viability (PC-14; first compound 0.03162 µM): 0.213
relative viability (PC-14; first compound 0.3162 µM): 0.263
relative viability (NCI-H1793; first compound 0.01 µM): 0.594
relative viability (NCI-H1793; first compound 0.03162 µM): 0.559
relative viability (NCI-H1793; first compound 0.3162 µM): 0.414
relative viability (NCI-H1650; first compound 0.01 µM): 0.421
relative viability (NCI-H1650; first compound 0.03162 µM): 0.41
relative viability (NCI-H1650; first compound 0.3162 µM): 0.481
relative viability (SW 900; first compound 0.01 µM): 0.442
relative viability (SW 900; first compound 0.3162 µM): 0.352
relative viability (NCI-H3122; first compound 0.01 µM): 0.411
relative viability (NCI-H3122; first compound 0.03162 µM): 0.455
relative viability (NCI-H3122; first compound 0.3162 µM): 0.469
relative viability (COR-L23; first compound 0.01 µM): 0.361
relative viability (COR-L23; first compound 0.03162 µM): 0.497
relative viability (COR-L23; first compound 0.3162 µM): 0.449
relative viability (NCI-H1734; first compound 0.01 µM): 0.532
relative viability (NCI-H1734; first compound 0.03162 µM): 0.521
relative viability (NCI-H1734; first compound 0.3162 µM): 0.482
relative viability (ABC-1; first compound 0.01 µM): 1
relative viability (ABC-1; first compound 0.03162 µM): 1.22
relative viability (ABC-1; first compound 0.3162 µM): 0.96
relative viability (NCI-H520; first compound 0.01 µM): 0.634
relative viability (NCI-H520; first compound 0.03162 µM): 0.524
relative viability (NCI-H520; first compound 0.3162 µM): 0.418
relative viability (NCI-H441; first compound 0.01 µM): 0.294
relative viability (NCI-H441; first compound 0.03162 µM): 0.248
relative viability (NCI-H441; first compound 0.3162 µM): 0.239
relative viability (NCI-H2347; first compound 0.01 µM): 0.652
relative viability (NCI-H2347; first compound 0.03162 µM): 0.571
relative viability (NCI-H2347; first compound 0.3162 µM): 0.625
relative viability (201T; first compound 0.01 µM): 0.91
relative viability (201T; first compound 0.03162 µM): 0.875
relative viability (201T; first compound 0.3162 µM): 0.86
relative viability (RERF-LC-KJ; first compound 0.01 µM): 0.783
relative viability (RERF-LC-KJ; first compound 0.03162 µM): 0.74
relative viability (RERF-LC-KJ; first compound 0.3162 µM): 0.817
relative viability (NCI-H647; first compound 0.01 µM): 0.364
relative viability (NCI-H647; first compound 0.03162 µM): 0.415
relative viability (NCI-H647; first compound 0.3162 µM): 0.41
relative viability (NCI-H1993; first compound 0.01 µM): 0.514
relative viability (NCI-H1993; first compound 0.03162 µM): 0.626
relative viability (NCI-H1993; first compound 0.3162 µM): 0.513

CC(C)Oc1cc(Nc2nc(N[C@@H](C)c3ccc(F)cn3)ncc2Cl)n[nH]1 [AZ23] + O=C(CCCCCCC(=O)Nc1ccccc1)NO [Vorinostat] (partner 1 µM)
relative viability (HCC-44; first compound 0.01 µM): 1.14
relative viability (HCC-44; first compound 0.03162 µM): 1.16
relative viability (HCC-44; first compound 0.3162 µM): 1.09
relative viability (NCI-H2085; first compound 0.01 µM): 0.662
relative viability (NCI-H2085; first compound 0.03162 µM): 0.88
relative viability (NCI-H2085; first compound 0.3162 µM): 0.755
relative viability (NCI-H2170; first compound 0.01 µM): 0.958
relative viability (NCI-H2170; first compound 0.03162 µM): 0.937
relative viability (NCI-H2170; first compound 0.3162 µM): 0.906
relative viability (EPLC-272H; first compound 0.03162 µM): 0.543
relative viability (EPLC-272H; first compound 0.3162 µM): 0.423
relative viability (EKVX; first compound 0.01 µM): 0.811
relative viability (EKVX; first compound 0.03162 µM): 0.683
relative viability (EKVX; first compound 0.3162 µM): 0.675
relative viability (LOU-NH91; first compound 0.01 µM): 0.864
relative viability (LOU-NH91; first compound 0.03162 µM): 1.03
relative viability (LOU-NH91; first compound 0.3162 µM): 0.964
relative viability (NCI-H2023; first compound 0.03162 µM): 0.605
relative viability (NCI-H2023; first compound 0.3162 µM): 0.861
relative viability (NCI-H2405; first compound 0.01 µM): 0.922
relative viability (NCI-H2405; first compound 0.03162 µM): 1.13
relative viability (NCI-H2405; first compound 0.3162 µM): 1.01
relative viability (PC-14; first compound 0.01 µM): 0.284
relative viability (PC-14; first compound 0.03162 µM): 0.874
relative viability (PC-14; first compound 0.3162 µM): 0.905
relative viability (NCI-H1793; first compound 0.01 µM): 0.679
relative viability (NCI-H1793; first compound 0.03162 µM): 0.811
relative viability (NCI-H1793; first compound 0.3162 µM): 0.892
relative viability (NCI-H1650; first compound 0.01 µM): 0.441
relative viability (NCI-H1650; first compound 0.03162 µM): 1.16
relative viability (NCI-H1650; first compound 0.3162 µM): 0.737
relative viability (SW 900; first compound 0.01 µM): 0.367
relative viability (SW 900; first compound 0.3162 µM): 0.544
relative viability (NCI-H3122; first compound 0.01 µM): 1.45
relative viability (NCI-H3122; first compound 0.03162 µM): 1.05
relative viability (NCI-H3122; first compound 0.3162 µM): 1.03
relative viability (COR-L23; first compound 0.01 µM): 0.164
relative viability (COR-L23; first compound 0.03162 µM): 0.498
relative viability (COR-L23; first compound 0.3162 µM): 0.424
relative viability (NCI-H1734; first compound 0.01 µM): 0.64
relative viability (NCI-H1734; first compound 0.03162 µM): 0.88
relative viability (NCI-H1734; first compound 0.3162 µM): 1.06
relative viability (ABC-1; first compound 0.01 µM): 0.957
relative viability (ABC-1; first compound 0.03162 µM): 1.15
relative viability (ABC-1; first compound 0.3162 µM): 1.19
relative viability (NCI-H520; first compound 0.01 µM): 0.794
relative viability (NCI-H520; first compound 0.03162 µM): 0.754
relative viability (NCI-H520; first compound 0.3162 µM): 0.609
relative viability (NCI-H441; first compound 0.01 µM): 0.825
relative viability (NCI-H441; first compound 0.03162 µM): 0.842
relative viability (NCI-H441; first compound 0.3162 µM): 0.738
relative viability (NCI-H2347; first compound 0.01 µM): 0.446
relative viability (NCI-H2347; first compound 0.03162 µM): 0.631
relative viability (NCI-H2347; first compound 0.3162 µM): 0.587
relative viability (201T; first compound 0.01 µM): 1.05
relative viability (201T; first compound 0.03162 µM): 1.09
relative viability (201T; first compound 0.3162 µM): 1.08
relative viability (RERF-LC-KJ; first compound 0.01 µM): 0.711
relative viability (RERF-LC-KJ; first compound 0.03162 µM): 0.704
relative viability (RERF-LC-KJ; first compound 0.3162 µM): 0.675
relative viability (NCI-H647; first compound 0.01 µM): 0.935
relative viability (NCI-H647; first compound 0.03162 µM): 0.497
relative viability (NCI-H647; first compound 0.3162 µM): 0.591
relative viability (NCI-H1993; first compound 0.01 µM): 0.634
relative viability (NCI-H1993; first compound 0.03162 µM): 0.654
relative viability (NCI-H1993; first compound 0.3162 µM): 0.814
